Measurements reported in US11214803B2, “Modulators of YAP1 expression” (Ionis Pharmaceuticals, Inc., priority 2019, dated 2022).
Strand notation (5' to 3'): a small letter for the sugar, then the base; units joined by * are phosphorothioate-linked, units joined directly phosphodiester-linked; [ ] holds rarer units or linkages, { } end groups; capitals alone tell only the bases. k = constrained ethyl (cEt); [5mC] = 5-methylcytosine; d = 2'-deoxy (DNA)

Test system: Yap1 mRNA
Assay: Antisense inhibition of human Yap1 in A-431 cells by cEt gapmers, single dose (Example 1, RTS4814)
Format: cell-based
Method in brief: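 Free uptake of 2,000 nM 3-10-3 cEt gapmer (16-mer, full phosphorothioate, 5-methylcytosines) in A-431 cells for ~48 h. Yap1 mRNA quantified by qRT-PCR with set RTS4814, normalized to total RNA (RiboGreen), and expressed as % of untreated control; asterisked values target the amplicon region.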

[1] = Table 1, A-431 cells, free uptake, 2,000 nM, approximately 48 hours, RTS4814, Yap1 mRNA relative to untreated control cells
[2] = A-431 cells, 5,000 cells per well, free uptake, 2,000 nM modified oligonucleotide, approx. 48 hours, RTS4814, normalized to RIBOGREEN, Table 3
[3] = Table 2, A-431 cells, free uptake, 2,000 nM, approximately 48 hours, RTS4814, Yap1 mRNA relative to untreated control cells

Substance | YAP1 (% UTC) [1] | YAP1 (% UTC) [2] | other results
715493 (antisense kG*kT*kG*d[5mC]*dT*dA*dG*d[5mC]*dT*dG*dG*dT*dG*k[5mC]*k[5mC]*kA) [Compound 715493] | 62 % UTC |  | 
715577 (kG*k[5mC]*kA*dT*dT*d[5mC]*dA*d[5mC]*dA*dG*dA*dG*dT*kT*kA*kA; antisense) [Compound 715577] | 21 % UTC |  | 
715502 (antisense k[5mC]*k[5mC]*kA*dG*dA*d[5mC]*dT*dT*dA*dA*dT*dT*d[5mC]*kA*kA*kG) [Compound 715502] | 91 % UTC |  | 
715523 (kA*kT*k[5mC]*dA*dG*dT*dA*d[5mC]*dT*dG*dG*d[5mC]*d[5mC]*kT*kA*kT; antisense) [Compound 715523] | 32 % UTC |  | 
715555 (kG*kT*kT*dA*dT*dT*d[5mC]*dA*dG*d[5mC]*dA*dG*d[5mC]*kT*kT*kA; antisense) [Compound 715555] |  | 21 % UTC | 
715572 (kT*k[5mC]*kA*dG*dA*dG*dA*dA*dG*dA*dA*dA*dG*kG*kT*kA; antisense) [Compound 715572] |  |  | YAP1 (% UTC) [3]: 97 % UTC
715423 (k[5mC]*k[5mC]*kA*dT*dG*dT*dT*dG*dT*dT*dG*dT*d[5mC]*kT*kG*kA; antisense) [Compound 715423] |  | 30 % UTC | 
715549 (kG*kA*kA*dG*dT*dT*dG*dT*dT*dG*dA*d[5mC]*d[5mC]*kA*kA*k[5mC]; antisense) [Compound 715549] |  | 66 % UTC | 
715447 (antisense k[5mC]*kA*kA*dT*dT*d[5mC]*d[5mC]*dT*dG*dA*dG*dA*d[5mC]*kA*kT*k[5mC]) [Compound 715447] |  | 81 % UTC | 
715538 (k[5mC]*kT*kT*dT*dG*dT*dA*dA*d[5mC]*dT*dT*dA*dA*kA*kA*kG; antisense) [Compound 715538] | 110 % UTC |  | 
715428 (kT*k[5mC]*k[5mC]*d[5mC]*dA*dT*d[5mC]*d[5mC]*dA*dT*d[5mC]*dA*dG*kG*kA*kA; antisense) [Compound 715428] |  |  | YAP1 (% UTC) [3]: 106 % UTC
715605 (antisense k[5mC]*kA*kT*dA*dG*d[5mC]*dA*d[5mC]*dA*dG*dA*dA*dT*kT*k[5mC]*k[5mC]) [Compound 715605] |  |  | YAP1 (% UTC) [3]: 112 % UTC
715612 (antisense kT*kA*k[5mC]*dT*dT*dT*dA*dA*dG*d[5mC]*d[5mC]*dA*d[5mC]*kA*kT*kG) [Compound 715612] |  | 77 % UTC | 
715594 (antisense kA*kT*kA*dT*dT*dT*d[5mC]*dT*dT*dT*dG*dG*d[5mC]*kA*kG*kA) [Compound 715594] |  | 39 % UTC | 
715529 (kT*kG*kA*dA*dA*d[5mC]*d[5mC]*dT*dG*dA*dT*d[5mC]*d[5mC]*kT*kT*kT; antisense) [Compound 715529] | 148 % UTC |  | 
715511 (antisense kT*k[5mC]*k[5mC]*dT*dG*dA*d[5mC]*dA*dT*dT*dT*dT*dG*kG*kA*kG) [Compound 715511] | 107 % UTC |  | 
715542 (kT*kA*k[5mC]*dT*dT*dG*dA*dA*dG*dA*dA*d[5mC]*dT*kA*kT*kT; antisense) [Compound 715542] |  |  | YAP1 (% UTC) [3]: 120 % UTC
715598 (antisense k[5mC]*k[5mC]*k[5mC]*dA*dA*dG*d[5mC]*dT*dA*d[5mC]*d[5mC]*d[5mC]*dA*kA*kG*kA) [Compound 715598] | 103 % UTC |  | 
715485 (antisense kA*kA*kT*dA*d[5mC]*dT*d[5mC]*dT*dT*dT*dG*dG*dA*kA*kA*k[5mC]) [Compound 715485] |  |  | YAP1 (% UTC) [3]: 72 % UTC
715546 (kT*kG*kA*d[5mC]*d[5mC]*dA*dA*d[5mC]*dT*dA*d[5mC]*dT*dT*kG*kA*kA; antisense) [Compound 715546] |  | 59 % UTC | 
